According to US20240173442A1, “COMBINATION THERAPY” (Hoffmann-La Roche Inc., priority 2021, published 2024):

Key:
[1] = Protocol 119: body weight, adverse events and toxicity; type: in vivo
[2] = Protocol 136: body weight, adverse events and toxicity; type: in vivo, B6-huCEA mice
Excerpt: (§1) Primary solid xenografts were established in each B6-huCEA or huCEACAM5 mouse on study day 0 through subcutaneous (SC) or intrapancreatic injection of carcinoembryonic antigen (CEA)-expressing tumor cells. […] Indications of pain, distress, or discomfort include, but are not limited to, acute body weight (BW) loss, scruffy fur, diarrhea, hunched posture, pale skin, and reluctance to move. Poor SC tumor status (e.g. ulceration, teeth marks, or open wounds) may also prompt euthanasia; in the orthotopic model, abdominal swelling indicates increasing tumor burden, which may prompt euthanasia.
(§2) SC tumor volumes were estimated through manual calipering 3 times per week, calculated according to the formula: volume 0.5× length×width^2. Additional tumor measurements were made as needed depending on the tumor growth rate. In the orthotopic model, the tumor progress was assessed regularly through bioluminescence imaging (BLI). The BW of the animals was measured at least 3 times per week, with additional measurements as needed depending on the health status. Mice whose BW loss exceeded 20% of their initial BW or whose tumor volume reached 3000 mm^3 (Protocols 119, 136, 150) or 2000 mm^3 (Protocol 195) were euthanized immediately.
No mice were euthanized due to acute post-injection BW loss; 1 tumor-free CEA-PRIT mouse was euthanized on day 117 after a sudden decline in overall status. […]

[3] = Protocol 150: body weight, adverse events and toxicity; type: in vivo
Excerpt: as §1, §2
No mice were euthanized due to acute post-injection BW loss.
Reactions included sluggish behaviour, somnolence, and death in 1/14 mice. […]

[4] = Protocol 195: body weight, adverse events and toxicity; type: in vivo

For `NC(=O)CN1CCN(CC(N)=O)CCN(CC(N)=O)CCN(CC(N)=O)CC1.[212Pb+2]` [^212Pb-DOTAM], the body weight change [1] was “transient weight loss in irradiated mice”, the body weight change [2] was “transient weight loss in irradiated mice” and the body weight change [3] was “transient weight loss in irradiated mice”. The body weight change [4] was “did not cause any significant weight loss by itself”.
